From publication PMC5487684, “Safety, Pharmacokinetics, and Antiviral Activity of a Novel HIV Antiviral, ABX464, in Treatment-Naive HIV-Infected Subjects in a Phase 2 Randomized, Controlled Study” (Antimicrobial Agents and Chemotherapy, 2017)

Assays:
HIV-1 = settings: cited from earlier work
[1] = Plasma pharmacokinetics of ABX464 and ABX464-NGlc in HIV-infected subjects; format: in vivo, human
Procedure: Plasma samples were analyzed for ABX464 and ABX464-NGlc using validated bioanalytical methods by Atlanbio (Saint Nazaire, France) according to good laboratory practices. Pharmacokinetic parameters were calculated by noncompartmental analysis (NCA), using Phoenix WinNonlin software (Pharsight Corporation) running on a personal computer. On day 1, the following PK parameters were generated: Cmax, the time to Cmax (Tmax), lag time (tlag), elimination rate constant (kel), area under the concentration-time curve (AUC) from time zero to time t (AUC0–t), AUC from time zero to infinity (AUC0–∞), apparent clearance (CL/F), and apparent volume of distribution (V/F). On the other days of PK assessment, only Cmax, Tmax, tlag, kel, and AUC0–t were generated. The secondary analysis concerned pharmacodynamic (PD) activity, as expressed by CD4 and CD8 levels and viral load across time. The HIV viral load was analyzed in the prequalified individual local study center laboratories. CD4 and CD8 cell counts were also determined in the local study center laboratories. With respect to the viral load, changes in the log-transformed viral load values between 24 h postdose and predose were calculated on each day, and a comparison between each dose level and pooled placebo data was made. Moreover, the rate of success (defined as a decrease in the viral load value of at least 0.5 log) was evaluated for each treatment (including placebo) and compared between treatments.

HIV replication in PBMCs = test system: HIV replication in PBMCs; set-up: method as in PMID 25889234; settings: in vitro; cited from earlier work
[2] = test system: HIV replication in macrophages; set-up: method as in PMID 25889234; settings: in vitro; cited from earlier work

| Structure (SMILES) | Decrease in mean total HIV-1 DNA copy number in monocytes (HIV-1; 10 days of treatment) | Reduction in mean total HIV-1 DNA copy number in monocytes (HIV-1; 10 days of treatment) | Effect on HIV viral load in plasma or CD4 T cell count (HIV-1) | Treated individuals with significant reductions in total HIV-1 DNA levels within monocytes (HIV-1) | half-life (t1/2) ([1]; HIV-infected subjects, oral) | Bioavailability of ABX464-NGlc in human subjects relative to mice ([1]; human, in vivo) | Cmax of the metabolite relative to that of the parent compound ([1]; plasma) | Antiviral effect on HIV replication in PBMCs (HIV replication in PBMCs) | 50% inhibitory concentration in macrophage culture relative to parent drug [2] | Inhibition of HIV replication in macrophage culture [2] |
| --- | --- | --- | --- | --- | --- | --- | --- | --- | --- | --- |
| Cn1cc(-c2cccc3cc(C(=O)N=C(N)N)ccc23)cn1 | 2.7 fold | 63% | no significant effect | three of the six | – | – | – | – | – | – |
| O=C(O)[C@H]1O[C@@H](N(c2ccc(OC(F)(F)F)cc2)c2ccc3cccc(Cl)c3n2)[C@H](O)[C@@H](O)[C@@H]1O [ABX464-NGlc, ABX464-N-glucuronide] | – | – | – | – | about 100 h | approximately 15 fold | approximately 160 fold | no antiviral effect | same 50% inhibitory concentration as the parent drug | able to inhibit HIV replication |
